Experimental data published in patent US20130309389A1, “GLYCOSIDE BLENDS” (CARGILL, INCORPORATED, priority 2010, published 2013).

Experiment: Trained sensory panel rating of sweetness intensity and bitterness intensity of glycoside solutions
Type: in vivo, human
Conditions: panel average; for Bitterness: scale 1-15 (caffeine standards); for Sweetness: scale 1-15 (sucrose standards)
Procedure: A 20 person sensory panel was trained to scale sweetness and bitterness. Reference tasting standards were prepared by dissolving respective standard material (sucrose for sweetness and caffeine for bitterness) into reverse osmosis water according to the scale values shown in Table 1 below.
The trained sensory panel evaluated pure and blended solutions of rebaudioside A, rebaudioside B, and rebaudioside D at ratios and concentrations shown in the tables and in FIGS. 1-4. Solutions were made in Evian® water. All solutions were heated to 47° C. for 10 minutes to ensure that all the glycoside material was completely dissolved. The solutions were allowed to cool to room temperature before serving to the panelists. Each solution was given a random 3-digit code and was served to the panelists in random order. Panelists dispensed 1 mL of each solution into their mouths from a pipette. The panelists were then asked to rate the “sweetness intensity” and “bitterness intensity” of the solutions and mark their responses on an un-anchored, 15 cm line ballot. The length of the line directly corresponded to the scale values (1-15) on which the participants were trained.
In order to prepare the panelists' palates, a control solution of commercial rebiana (300 ppm) was the first sample each panelist tasted during a sitting. In between testing samples, the panelists cleansed their palates with water and apple slices. The panelists also waited 5 minutes between each sample. The panelists' responses were measured, compiled, and averaged for each sample.
The figures show the concentration of the blend tested (ppm) as well as the ratio of one glycoside to another in the blend as a percentage. Each blend's sweetness and bitterness was measured by the trained panel. The blend's sweetness is measured as SEV.
Each blend was then compared to an isosweet concentration of the pure glycosides. This value represents the concentration of the pure glycoside needed to achieve the SEV value measured for the blend. Thus, if the value is greater than that of the blend, then a larger concentration of the pure glycoside would be needed to achieve the same sweetness as achieved by the blend (at the lower dosage). The tables also include an isosweet bitterness value for each pure glycoside. This value represents the intensity of bitterness measured for that concentration of pure glycoside. The concentration of the isosweet solution of rebaudioside A, rebaudioside B, or rebaudioside D and the bitterness of the isosweet solutions were calculated by a fit of the pure component sensory response (table 2) to standard psycho-sensory models.

SMILES	Bitterness (114 ppm in Evian water)	Sweetness (114 ppm in Evian water)	Bitterness (229 ppm in Evian water)	Sweetness (229 ppm in Evian water)	Bitterness (343 ppm in Evian water)	Sweetness (343 ppm in Evian water)	Bitterness (457 ppm in Evian water)	Sweetness (457 ppm in Evian water)	Bitterness (571 ppm in Evian water)	Sweetness (571 ppm in Evian water)	Bitterness (800 ppm in Evian water)	Sweetness (800 ppm in Evian water)	Bitterness (57 ppm in Evian water)	Sweetness (57 ppm in Evian water)	Bitterness (171 ppm in Evian water)	Sweetness (171 ppm in Evian water)	Bitterness (286 ppm in Evian water)	Sweetness (286 ppm in Evian water)	Bitterness (400 ppm in Evian water)	Sweetness (400 ppm in Evian water)
C=C1C[C@@]23CC[C@H]4[C@@](C)(CCC[C@@]4(C)C(=O)O[C@@H]4O[C@H](CO)[C@@H](O)[C@H](O)[C@H]4O)[C@@H]2CC[C@]1(O[C@@H]1O[C@H](CO)[C@@H](O)[C@H](O[C@@H]2O[C@H](CO)[C@@H](O)[C@H](O)[C@H]2O)[C@H]1O[C@@H]1O[C@H](CO)[C@@H](O)[C@H](O)[C@H]1O)C3 [Reb A, Rebaudioside A]	4.2	3.1	5.3	5.7	6.6	7.4	7.0	8.4	8.4	9.2	9.0	10.1	–	–	–	–	–	–	–	–
C=C1C[C@@]23CC[C@H]4[C@@](C)(CCC[C@@]4(C)C(=O)O)[C@@H]2CC[C@]1(O[C@@H]1O[C@H](CO)[C@@H](O)[C@H](O[C@@H]2O[C@H](CO)[C@@H](O)[C@H](O)[C@H]2O)[C@H]1O[C@@H]1O[C@H](CO)[C@@H](O)[C@H](O)[C@H]1O)C3 [Reb B, Rebaudioside B]	4.2	2.7	–	–	5.1	6.5	–	–	–	–	–	–	3.9	1.8	4.3	3.6	5.0	5.8	5.8	7.6
